# Laboratory results taken from US8575376B2, “Steroide anionic compounds, method of their production, usage and pharmaceutical preparation involving them” (Ustav Organicke Chemie A Biochemie Akademie Ved Ceske …, priority 2009, dated 2013).
# How the values were obtained:
# [1] = target: T1, recombinant NR1/NR2B receptors (Rattus norvegicus, UniProt P35439+Q00960); experiment: Patch-clamp, inhibition of glutamate responses of recombinant NMDA receptors in transfected HEK293 cells; format: cell-based
# T1 construct: expressed in transfected cells; host or cells: HEK293 cells (ATCC CRL1573)
# Wistar rats = experiment: Spontaneous EEG and epileptic afterdischarges in awake rats; format: in vivo, rat
# Excerpt: To assess the influence of the compound from example 9 on spontaneous EEG, evoked potentials and epileptic afterdischarges, recording electrodes were implanted into the epidural spaces of the adult Wistar rats. Rats were anaesthetized with isoflurane (1.5-2%) and 4 silver wire bare electrodes were inserted epidurally over sensorimotor cortex. Reference and ground electrodes were placed above cerebellum. The whole montage was fixed to the skull with dental acrylic.
# After recovery period (1 week), animals were placed into the plastic boxes and connected to the Video EEG monitoring (VisionBrain/). After 1 hour of background recording the compound from example 9 was administered at the dose of 0.01 mg/kg and EEG was recorded for next 24 hours. Analysis of EEG was performed in a custom-based MATLAB script. Power of the EEG signal was calculated from FFT in frequency band 1.5-45 Hz. Length and duration of spike and wave afterdischarges (SPW) was measured from EEG to assess effect of compound from example 9 (0.01 mg/kg and 10 mg/kg) on epileptiform activity.
# Long-Evans rats = experiment: AAPA task after bilateral NMDA excitotoxic lesion of the hippocampus; format: in vivo, rat
# Method: Neuroprotective action of 3α-substituted derivatives of pregnanolone was tested in the well-established model represented by excitotoxic bilateral lesion of the hippocampus with NMDA, an agonist of NMDA receptors. This model represents a widely-accepted paradigm of excitotoxicity induced experimental disruption of memory functions in laboratory rodents. The model also mimics into some extent the excessive action of glutamate on cells in the hippocampus, which contains abundance of NMDA receptors. The effect of lesions and possible neuroprotective action can be observed at various intervals after treatment both on the histological and behavioral level, provided that a suitable hippocampus-dependent memory task is available. In our studies, we have used a hippocampus-dependent spatial task AAPA (see above), which requires spatial and executive abilities and involves so-called “cognitive coordination” (Wesierska et al., 2005). Again, all manipulations with animals conformed to current legislation and Institutional recommendations on animal care and were approved by ethical-care committee.
# In this phase of experiment, we have studied the effect of compound from Example 9 (and relation of this effect to dose) on NMDA excitotoxic hippocampal lesion after various intervals from lesioning. 150 adult male Long-Evans rats (250-350 g) were used in the study. Rats were housed in transparent plastic cages (25×25×40 cm) in air-conditioned animal room with 12/12 h dark/light rhythmicity. All rats had free access to food and water throughout the study.
# During surgery, animals were deeply anesthetized by isoflurane inhalation anesthesia (3.5%, driven by air). Initial sedation was pursued in initiation chamber filled with diethyl ether vapor. During whole anesthesia, vital functions of animals were precisely monitored by the person pursuing surgery. After fixation in the stereotaxic apparatus (Kopf Instruments) the skull was exposed and small trephine openings were drilled with micro driller and subsequently, 1 ul of NMDA solution ([…] NMDA in saline buffered with calcium dihydrogenphosphate to pH=7.2) was microinjected into both dorsal hippocampi. The stereotaxic coordinates (AP=4; L=±2.5; DV=4) were measured from a rigorous atlas (Paxinos and Watson, 2005) and later verified from histological examination. Rats were then placed into soft post-surgery boxes. […] Doses of compound from Example 9 were: 0.01 mg/kg, 0.1 mg/kg and 10 mg/kg of b.w. In control groups and lesion-only groups, we applied only saline and NMDA, respectively. Solution of compound from Example 9 (0.01 mg/2 ml, 0.1 mg/2 ml or 10 mg/2 ml dissolved in cyclodextrin) was applied s.c. at a volume of 2 ml/kg.
# Prior to behavioral observations, animals were left for 7 days to recover after surgery. After this recovery period, two days (each consisting of two sessions) of AAPA training were conducted. Each rat was initially placed onto rotating (1 rpm) circular arena containing a to-be-avoided sector (60°), fixed in the coordinate frame of the room (Stuchlik et al., 2008). Upon entrance into the prohibited sector, rat was punished by a mild electric footshock (˜0.3 mA] delivered from low-impedance subcutaneous wire to contact between rats paws and grounded floor (with highest voltage drop in rats feet). Rats wore a latex harness on their backs, holding an infrared light-emitting diode (LED), which was sampled by TV camera mounted above the arena and connected to a computer digitizing system (iTrack, Biosignal Group, USA). The shock sector is not directly perceptible for animals and its location can be determined solely by its relationships with distal room landmarks. […] The task is highly dependent upon hippocampus, with unilateral inactivation of this structure leading to avoidance deficit (Cimadevilla et al., 2001). This was the reason why we have selected this task for NMDA-induced impairment and detection of putative neuroprotective action of our compound (Example 9). […]
# [2] = 10 mg/kg s.c., 30 min prior to and after lesion, or 120 min after lesion
# T1 sequence (Q00960 27-1482, other chains not shown): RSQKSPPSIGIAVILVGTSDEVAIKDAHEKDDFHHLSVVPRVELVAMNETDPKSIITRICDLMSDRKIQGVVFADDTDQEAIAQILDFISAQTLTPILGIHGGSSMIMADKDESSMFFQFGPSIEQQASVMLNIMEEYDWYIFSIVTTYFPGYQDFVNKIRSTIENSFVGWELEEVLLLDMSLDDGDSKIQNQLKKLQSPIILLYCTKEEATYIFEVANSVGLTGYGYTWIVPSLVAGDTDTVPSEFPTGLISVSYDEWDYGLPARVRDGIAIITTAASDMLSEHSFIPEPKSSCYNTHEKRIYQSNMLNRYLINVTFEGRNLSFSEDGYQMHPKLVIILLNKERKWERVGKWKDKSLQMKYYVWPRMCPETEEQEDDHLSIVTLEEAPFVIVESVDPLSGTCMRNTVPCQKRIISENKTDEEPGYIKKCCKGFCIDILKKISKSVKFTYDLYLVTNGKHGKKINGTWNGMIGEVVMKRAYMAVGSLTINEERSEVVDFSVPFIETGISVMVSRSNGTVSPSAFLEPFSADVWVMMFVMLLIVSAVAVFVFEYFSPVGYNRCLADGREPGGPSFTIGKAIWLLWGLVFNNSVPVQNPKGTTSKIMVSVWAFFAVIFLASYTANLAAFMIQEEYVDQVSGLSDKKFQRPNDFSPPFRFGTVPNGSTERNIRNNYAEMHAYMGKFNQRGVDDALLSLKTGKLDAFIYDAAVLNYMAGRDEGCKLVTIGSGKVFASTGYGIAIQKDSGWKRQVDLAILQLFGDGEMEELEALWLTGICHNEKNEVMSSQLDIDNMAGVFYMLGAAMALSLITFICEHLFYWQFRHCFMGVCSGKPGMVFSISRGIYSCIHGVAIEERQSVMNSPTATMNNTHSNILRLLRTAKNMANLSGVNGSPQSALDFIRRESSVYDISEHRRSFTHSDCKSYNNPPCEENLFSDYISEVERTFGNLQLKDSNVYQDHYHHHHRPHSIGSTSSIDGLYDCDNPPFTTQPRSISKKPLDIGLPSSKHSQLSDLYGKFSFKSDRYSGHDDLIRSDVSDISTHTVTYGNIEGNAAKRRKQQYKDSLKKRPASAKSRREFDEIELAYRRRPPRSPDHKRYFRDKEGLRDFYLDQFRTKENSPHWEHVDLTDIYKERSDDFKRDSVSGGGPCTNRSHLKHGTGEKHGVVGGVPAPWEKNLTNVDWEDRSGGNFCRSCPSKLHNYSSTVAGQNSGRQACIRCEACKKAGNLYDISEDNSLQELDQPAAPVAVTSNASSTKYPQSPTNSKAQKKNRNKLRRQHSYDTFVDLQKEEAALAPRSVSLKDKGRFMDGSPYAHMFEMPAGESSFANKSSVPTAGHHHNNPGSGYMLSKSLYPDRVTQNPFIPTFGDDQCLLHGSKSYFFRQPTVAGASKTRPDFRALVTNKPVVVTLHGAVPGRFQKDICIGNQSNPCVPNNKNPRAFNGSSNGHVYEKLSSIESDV
compound,measurement,setting,value
"CC(=O)[C@H]1CC[C@H]2[C@@H]3CC[C@@H]4C[C@H](OC(=O)[C@@H](N)CCC(=O)O)CC[C@]4(C)[C@H]3CC[C@]12C [Example 9, 20-Oxo-5β-pregnan-3α-yl L-glutamyl 1-ester]",IC50,[1]; calculated from relative inhibition with Hill's coefficient 1.2,73 µM
same,Relative inhibition effect (%),"[1]; responses to 1 mM glutamate, -60 mV, HEK293 NR1-1a/NR2B, steroid 50, 100 or 200 μM",77.1 ± 5.2%
same,spontaneous EEG power,Wistar rats; 60 min and 180 min after application,changes the EEG power at the shorter interval
same,duration and number of spike-wave afterdischarges,Wistar rats; higher dose (10 mg/kg),tended to increase these parameter
same,duration and number of spike-wave afterdischarges,Wistar rats; low dose (0.01 mg/kg),tended to slightly decrease both duration and number of spike-wave episodes
same,number of entrances in AAPA after NMDA lesion,"Long-Evans rats; 0.01 mg/kg s.c., 30 min after lesion",improved the subsequent performance in the AAPA task
same,maximum time avoided in AAPA after NMDA lesion,"Long-Evans rats; 0.01 mg/kg s.c., 30 min after lesion, or 30 min prior to and after lesion",had beneficial effect in lesioned animals
same,number of entrances in AAPA after NMDA lesion,"Long-Evans rats; 0.01 mg/kg s.c., 30 min prior to and after lesion",the alleviation was not significant
same,number of entrances in AAPA after NMDA lesion,"Long-Evans rats; 0.01 mg/kg s.c., longer intervals from the lesion",exerted no effect after longer intervals from the lesion
same,maximum time avoided in AAPA after NMDA lesion,Long-Evans rats; 0.1 mg/kg s.c.,tended to alleviate the performance of rats compared to lesioned animals without treatment
same,number of entrances in AAPA after NMDA lesion,"Long-Evans rats; 0.1 mg/kg s.c., 30 min after lesion",non-significantly improved the behavioral performance
same,maximum time avoided in AAPA after NMDA lesion,Long-Evans rats; [2],caused a significant improvement of rat performance
same,number of entrances in AAPA after NMDA lesion,Long-Evans rats; [2],significant protective effect against hippocampal lesion
same,number of entrances in AAPA after NMDA lesion,"Long-Evans rats; 10 mg/kg s.c., other delays",No improvement was seen at other delays
